Measured values reported in the NIST ThermoML archive (doi:10.1016/j.jct.2015.07.028).

What was measured:
[1] = for molar entropy: 101.33 kPa, Small (less than 1 g) adiabatic calorimetry; for vapor or sublimation pressure: Closed cell (Static) method; for Triple point temperature: Adiabatic calorimetry
[2] = molar enthalpy of vaporization or sublimation; settings: 305.12 K; Liquid; Static calorimetry
[3] = Molar enthalpy of transition or fusion; settings: Adiabatic calorimetry

C=CC(C)(C)O [2-methyl-3-buten-2-ol]
[1]
Settings | molar entropy [J/K/mol] | vapor or sublimation pressure [kPa]
5 K, Crystal 2 | 0.1073 | –
10 K, Crystal 2 | 0.901 | –
15 K, Crystal 2 | 2.701 | –
20 K, Crystal 2 | 5.385 | –
25 K, Crystal 2 | 8.631 | –
30 K, Crystal 2 | 12.21 | –
35 K, Crystal 2 | 15.96 | –
40 K, Crystal 2 | 19.77 | –
45 K, Crystal 2 | 23.58 | –
50 K, Crystal 2 | 27.38 | –
60 K, Crystal 2 | 34.85 | –
70 K, Crystal 2 | 42.16 | –
80 K, Crystal 2 | 49.35 | –
88.1 K, Crystal 1 | 57.03 | –
88.1 K, Crystal 2 | 55.1 | –
90 K, Crystal 1 | 58.35 | –
100 K, Crystal 1 | 65.19 | –
110 K, Crystal 1 | 71.91 | –
120 K, Crystal 1 | 78.52 | –
130 K, Crystal 1 | 85.1 | –
140 K, Crystal 1 | 91.7 | –
150 K, Crystal 1 | 98.37 | –
160 K, Crystal 1 | 105.2 | –
170 K, Crystal 1 | 112.2 | –
180 K, Crystal 1 | 119.4 | –
190 K, Crystal 1 | 126.8 | –
200 K, Crystal 1 | 134.3 | –
210 K, Crystal 1 | 141.9 | –
220 K, Crystal 1 | 149.7 | –
230 K, Crystal 1 | 157.5 | –
240 K, Crystal 1 | 165.4 | –
245.03 K, Crystal 1 | 169.4 | –
245.03 K, Liquid | 190.6 | –
250 K, Liquid | 194.6 | –
260 K, Liquid | 202.4 | –
270 K, Liquid | 210.3 | –
273.15 K, Liquid | 212.8 | –
279.12 K, Liquid | – | 0.7477
279.82 K, Liquid | – | 0.7934
280 K, Liquid | 218.2 | –
280.58 K, Liquid | – | 0.8399
280.94 K, Liquid | – | 0.8608
281.64 K, Liquid | – | 0.9104
283.31 K, Liquid | – | 1.026
283.94 K, Liquid | – | 1.075
285.82 K, Liquid | – | 1.23
286.31 K, Liquid | – | 1.271
288.03 K, Liquid | – | 1.447
288.63 K, Liquid | – | 1.504
290 K, Liquid | 226.1 | –
291.06 K, Liquid | – | 1.787
291.09 K, Liquid | – | 1.78
293.17 K, Liquid | – | 2.061
293.35 K, Liquid | – | 2.084
295.88 K, Liquid | – | 2.467
295.92 K, Liquid | – | 2.466
298.02 K, Liquid | – | 2.863
298.15 K, Liquid | 232.6 | –
298.84 K, Liquid | – | 2.995
300 K, Liquid | 234.1 | –
301.36 K, Liquid | – | 3.534
301.37 K, Liquid | – | 3.532
303.03 K, Liquid | – | 3.938
303.4 K, Liquid | – | 4.006
306.13 K, Liquid | – | 4.784
306.16 K, Liquid | – | 4.776
307.86 K, Liquid | – | 5.284
308.18 K, Liquid | – | 5.405
310 K, Liquid | 242 | –
311.01 K, Liquid | – | 6.393
311.02 K, Liquid | – | 6.405
312.7 K, Liquid | – | 7.049
313.18 K, Liquid | – | 7.252
313.25 K, Liquid | – | 7.27
315.8 K, Liquid | – | 8.467
315.81 K, Liquid | – | 8.457
315.98 K, Liquid | – | 8.484
318.16 K, Liquid | – | 9.605
320 K, Liquid | 250 | –
320.59 K, Liquid | – | 11.11
320.62 K, Liquid | – | 11.02
320.82 K, Liquid | – | 11.12
322.89 K, Liquid | – | 12.51
322.94 K, Liquid | – | 12.48
325.36 K, Liquid | – | 14.31
325.39 K, Liquid | – | 14.24
325.66 K, Liquid | – | 14.41
328.07 K, Liquid | – | 16.34
330 K, Liquid | 257.9 | –
340 K, Liquid | 265.7 | –
350 K, Liquid | 273.5 | –
360 K, Liquid | 281.1 | –
370 K, Liquid | 288.5 | –

Settings | Molar enthalpy of transition or fusion, [3] [kcal/mol] | Triple point temperature, [1] [K]
Crystal 1 | 1.243 | 245.03
Crystal 2 | 0.0406 | 88.1

Settings | molar enthalpy [kcal/mol]
[2] | 11.2
